# The source made the active and inactive calls. Cut-off read from the data, not from the text of the source, for most assays here: actives have a measured EC50 and inactives only a lower limit.
# How the values were obtained:
# [1] = microbe, parasite or virus in culture; format: functional; details: Mycobacterium tuberculosis
# [2] = system: INS1; assay: INS-1E survival protection against cytokine death – cell-based, luminescence, retest, dose response (AID 449756); format: functional; details: Rattus norvegicus;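 note: cell death triggered by IL-1 beta plus TNF-alpha plus IFN-gamma mixture; protective hits raise ATP signal compared with cytokine alone wells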
# [3] = NIH-3T3 fibroblast cytotoxicity, dose response, cytotoxicity control, cell-based, fluorescence, Alamar Blue, secondary assay (AID 2327); format: functional;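 note: NIH-3T3 mouse fibroblasts cultured with fluconazole at 8 µg/mL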
# [4] = fluconazole-exposed Candida albicans growth modulators – fluorescence, retest, confirmation (AID 2467); format: functional, cell-based
# [5] = target: T1, Rac GTPase-activating protein 1 (Homo sapiens, UniProt Q9H0H5); assay: blockers of MgcRacGAP-driven Rac1 GTP hydrolysis – biochemical, ADP Hunter fluorescence, primary and confirmatory, confirmation (AID 624330); format: functional
# T1 sequence (Q9H0H5 whole entry): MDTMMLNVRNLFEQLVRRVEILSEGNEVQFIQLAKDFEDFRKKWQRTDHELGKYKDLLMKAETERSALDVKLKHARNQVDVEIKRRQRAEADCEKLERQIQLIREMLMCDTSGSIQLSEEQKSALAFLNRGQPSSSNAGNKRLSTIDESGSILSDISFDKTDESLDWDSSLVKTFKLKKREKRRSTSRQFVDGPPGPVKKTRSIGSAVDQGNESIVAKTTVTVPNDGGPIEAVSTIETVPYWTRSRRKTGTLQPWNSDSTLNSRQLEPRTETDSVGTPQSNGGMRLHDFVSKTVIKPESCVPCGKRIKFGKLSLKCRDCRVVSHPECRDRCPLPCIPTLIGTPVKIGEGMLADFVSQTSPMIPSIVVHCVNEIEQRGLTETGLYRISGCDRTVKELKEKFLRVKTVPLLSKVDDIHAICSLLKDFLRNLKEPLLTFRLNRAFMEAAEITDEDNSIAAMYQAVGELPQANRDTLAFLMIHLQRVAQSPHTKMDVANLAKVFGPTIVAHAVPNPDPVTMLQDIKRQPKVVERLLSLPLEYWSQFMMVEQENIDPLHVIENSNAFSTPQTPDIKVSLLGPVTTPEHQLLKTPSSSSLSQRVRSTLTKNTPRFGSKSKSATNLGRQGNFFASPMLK
# [6] = luciferase reporter signal suppression in cells – H4 neuroglioma cells, luminescence, dose response (AID 1990); format: functional, cell-based
# [7] = Luminescence Cell-Based Dose Response HTS to Identify Inhibitors of 5'UTR Stem-Loop Driven Prion Protein mRNA Translation in H4 Neuroglioblastoma Cells. [Related pubchem assays: 1827 (Project Summary), 1813 (Primary HTS)]; format: functional
# [8] = alpha-synuclein stem-loop luciferase translation blockers – H4 neuroglioma cells, luminescence, confirmation (AID 1988); format: functional, cell-based
# [9] = viability of PTEN-deleted HCT116 cells – cell-based, HCT116 PTEN knockout, dose response (AID 1047); format: functional;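 note: HCT116 colon tumor cells with PTEN knocked out; cells exposed to compound for 60 hours before readout; potency for loss of cell viability measured by luminescence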
# [10] = viability of HCT116 lacking mutant beta-catenin – cell-based, human colon tumor, dose response (AID 1045); format: functional;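 note: HCT116 colon tumor cells with beta catenin knocked out; cells exposed to compound for 60 hours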
# [11] = target: T2, Replicative DNA helicase DnaB (Mycobacterium tuberculosis, UniProt P9WMR3); assay: DnaB intein splicing inhibitors, dose response, biochemical, cell-free fluorescence (AID 449749); format: functional
# T2 sequence (P9WMR3 whole entry): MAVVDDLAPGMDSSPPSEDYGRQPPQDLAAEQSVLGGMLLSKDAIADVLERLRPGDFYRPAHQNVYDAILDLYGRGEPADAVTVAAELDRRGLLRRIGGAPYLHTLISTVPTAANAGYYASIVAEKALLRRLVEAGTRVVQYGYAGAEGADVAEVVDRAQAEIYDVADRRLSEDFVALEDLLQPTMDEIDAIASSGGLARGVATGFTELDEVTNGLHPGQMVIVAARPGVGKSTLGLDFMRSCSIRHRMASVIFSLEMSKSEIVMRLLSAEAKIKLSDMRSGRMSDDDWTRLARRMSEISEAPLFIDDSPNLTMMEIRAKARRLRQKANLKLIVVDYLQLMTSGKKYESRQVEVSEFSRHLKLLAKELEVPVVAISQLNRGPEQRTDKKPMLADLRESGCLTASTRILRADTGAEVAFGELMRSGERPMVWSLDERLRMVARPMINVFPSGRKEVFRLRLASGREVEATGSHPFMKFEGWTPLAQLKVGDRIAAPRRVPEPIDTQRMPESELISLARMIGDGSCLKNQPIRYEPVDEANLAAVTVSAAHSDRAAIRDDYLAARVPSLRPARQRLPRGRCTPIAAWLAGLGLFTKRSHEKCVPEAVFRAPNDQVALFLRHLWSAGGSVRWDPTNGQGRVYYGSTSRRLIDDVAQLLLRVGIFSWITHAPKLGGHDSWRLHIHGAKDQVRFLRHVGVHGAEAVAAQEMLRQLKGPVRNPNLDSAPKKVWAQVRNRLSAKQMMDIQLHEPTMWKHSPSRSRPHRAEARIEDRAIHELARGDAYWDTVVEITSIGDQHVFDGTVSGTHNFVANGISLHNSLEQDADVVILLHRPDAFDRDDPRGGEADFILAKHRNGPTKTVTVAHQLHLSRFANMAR
# [12] = target: T3, Protein RecA (Mycobacterium tuberculosis, UniProt P9WHJ3); assay: Fluorescence Cell-Free Homogeneous Dose Retest to Identify Inhibitors of RecA-Intein Splicing Activity. [Related pubchem assays (depositor defined):AID2097, AID2223, AID489010, AID492950]; format: functional
# T3 sequence (P9WHJ3 whole entry): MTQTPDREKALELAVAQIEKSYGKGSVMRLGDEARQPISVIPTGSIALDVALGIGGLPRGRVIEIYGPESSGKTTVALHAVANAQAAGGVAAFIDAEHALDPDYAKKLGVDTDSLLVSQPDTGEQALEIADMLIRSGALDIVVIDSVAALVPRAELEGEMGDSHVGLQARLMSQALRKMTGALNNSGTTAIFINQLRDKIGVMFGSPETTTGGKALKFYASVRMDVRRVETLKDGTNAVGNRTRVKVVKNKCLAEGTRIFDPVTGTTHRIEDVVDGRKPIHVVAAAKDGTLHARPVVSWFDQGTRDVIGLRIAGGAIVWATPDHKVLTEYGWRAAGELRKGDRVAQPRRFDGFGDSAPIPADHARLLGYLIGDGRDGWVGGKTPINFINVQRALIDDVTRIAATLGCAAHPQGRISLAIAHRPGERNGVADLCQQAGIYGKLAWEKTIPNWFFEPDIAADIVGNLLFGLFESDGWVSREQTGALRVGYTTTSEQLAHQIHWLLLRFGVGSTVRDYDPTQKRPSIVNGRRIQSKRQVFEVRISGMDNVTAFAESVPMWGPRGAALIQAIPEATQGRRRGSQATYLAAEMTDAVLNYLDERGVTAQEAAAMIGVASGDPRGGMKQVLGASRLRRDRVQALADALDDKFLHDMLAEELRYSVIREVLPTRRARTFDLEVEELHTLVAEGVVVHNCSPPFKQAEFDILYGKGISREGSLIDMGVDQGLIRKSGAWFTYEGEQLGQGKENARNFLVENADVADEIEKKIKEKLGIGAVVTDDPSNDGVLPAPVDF
# [13] = Luminescence Cell-Based Dose Confirmation HTS to Identify Activators of 5'UTR Stem-Loop Driven Alpha-Synuclein mRNA Translation in H4 Neuroglioblastoma Cells. [Related pubchem assays: 1829 (Project Summary), 1814 (Primary HTS)]; format: functional
# [14] = Luminescence Cell-Based Dose Response HTS to Identify Activators of Luciferase Translation or Activity in H4 […] Cells. [Related pubchem assays: 1829 (Project Summary), 1814 (Primary HTS)]; format: functional
# [15] = system: H4; assay: Luminescence Cell-Based Dose Response HTS to Identify Activators of 5'UTR Stem-Loop Driven Prion Protein mRNA Translation in H4 Neuroglioblastoma Cells. [Related pubchem assays: 1829 (Project Summary), 1814 (Primary HTS)]; format: functional; details: Homo sapiens
# [16] = Trypanosoma cruzi growth suppression in host cells – NIH3T3 host cells, beta-gal luminescence, confirmation (AID 2044); format: functional, cell-based;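 note: intracellular parasites grown in NIH/3T3 mouse fibroblasts as host cells; luminescent beta-galactosidase reporter signal from transgenic T. cruzi replicating inside host cells; inhibitors lower the luminescence signal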
# [17] = NIH3T3 cell viability loss – ATP luminescence, mouse fibroblasts, counter-screen, dose response (AID 2010); format: functional, cell-based;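 note: cells exposed to compound for about 90 hours before reading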
# [18] = cells; format: functional
smiles,measurement,setting,value
Cc1ccc(C(=O)c2cc(C)sc2NC(=O)CN2CCN(C(=O)c3ccco3)CC2)cc1,CC50,[1],23.4 µM (active)
N=C(NOC(=O)c1cccc(Cn2cc(C(F)(F)F)ccc2=O)c1)c1ccccc1,AC50,[2],7.96 µM (active)
Nc1ccc(N2CCN(c3cccc(Cl)c3)CC2)cc1,EC50,[3],> 150 µM (inactive)
same,EC50,[4],> 38 µM (not active)
same,IC50,[5],21 µM (active)
Cc1c(N(C)C)nc2ccccc2c1N,IC50,[5],102 µM (active)
CC(OC(=O)c1oc2ccccc2c1COc1ccccc1)C(N)=O (stereo not drawn),EC50,[3],19.8 µM (inconclusive)
same,EC50,[6],26.7 µM (active)
same,EC50,[7],> 120 µM (not active)
same,EC50,[8],26.1 µM (active)
same,EC50,[4],> 38 µM (not active)
Cc1cc(OCCCCCNCCO)cc(C)c1Cl,EC50,[9],17.8 µM (active)
same,EC50,[10],17.6 µM (active)
CCOC(=O)c1c(NC(=O)/C=C/C(=O)O)sc(C)c1-c1ccc(F)cc1,AC50,[11],14.3 µM (active)
same,EC50,[12],6.23 µM (active)
CC(C)=CCC/C(C)=C/CC(C)(C)CNCCN1CCNCC1,EC50,[13],> 120 µM (not active)
same,EC50,[14],> 120 µM (not active)
same,EC50,[15],> 120 µM (not active)
same,EC50,[9],6.28 µM (active)
same,EC50,[10],5.89 µM (active)
O=C(Nc1ccccc1O)C(c1ccccc1)c1ccccc1,AC50,[2],2.92 µM (active)
Cn1c(SCC(=O)NCc2ccc(F)cc2)nc2ccccc21,AC50,[11],124 µM (active)
same,EC50,[12],> 380 µM (inactive)
O=C(Oc1ccc(Br)cc1C(=S)N1CCOCC1)c1cccc([N+](=O)[O-])c1,AC50,[11],18.2 µM (active)
same,EC50,[12],23.1 µM (active)
Cc1ccc(-n2nc(-c3ccco3)cc2C(=O)NCc2cccnc2)cc1,EC50,[6],> 120 µM (not active)
same,EC50,[7],38.1 µM (active)
same,EC50,[8],> 120 µM (not active)
COc1ccc(CCNC(=O)CNCC(c2ccccc2)N(C)C)cc1OC (stereo not drawn),IC50,[5],78.4 µM (active)
OCCN1CCN(CC(O)COC(c2ccc(F)cc2)c2ccc(F)cc2)CC1 (stereo not drawn),IC50,[5],121 µM (active)
Cc1ccc(CS(=O)(=O)Cc2ccc(C(=O)NC3CCCCCC3)o2)cc1,EC50,[6],24.3 µM (active)
same,EC50,[7],> 120 µM (not active)
same,EC50,[8],22.5 µM (active)
O=C(Nc1cccc(Cl)c1)c1cccc(Oc2ccc([N+](=O)[O-])cc2Cl)c1,EC50,[9],16.1 µM (active)
same,EC50,[10],17.1 µM (active)
COc1ccc(C2c3c(oc4ccccc4c3=O)C(=O)N2c2ccccn2)cc1OC (stereo not drawn),EC50,[9],17.2 µM (active)
same,EC50,[10],20.7 µM (active)
CN1C(=O)C(=C2CC(c3ccccc3)N(C(=O)CCl)N2)C(=O)N(C)C1=O (stereo not drawn),AC50,[11],2.05 µM (active)
same,EC50,[12],0.351 µM (active)
CCC1(CC)NC(=O)N(CC(=O)N2N=C(c3ccc(Cl)cc3)CC2c2ccco2)C1=O (stereo not drawn),EC50,[6],> 120 µM (not active)
same,EC50,[7],> 120 µM (not active)
same,EC50,[8],> 120 µM (not active)
C=CCNC(=S)Nc1ccc(OC(=O)Nc2ccc(Cl)c(Cl)c2)cc1,IC50,[5],89 µM (active)
COc1ccc(CSc2nc(N3CCOCC3)c3c(c2C#N)CC(C)(C)OC3)cc1,EC50,[6],18.5 µM (active)
same,EC50,[7],> 120 µM (not active)
same,EC50,[8],> 120 µM (not active)
same,EC50,[16],2.52 µM (active)
same,EC50,[17],> 60 µM (not active)
CC(C)CC1C(C#N)=C(N)Oc2[nH]nc(-c3cccs3)c21 (stereo not drawn),AC50,[11],48.8 µM (active)
same,EC50,[12],58.1 µM (active)
CCOc1ccc(Nc2nc(Cc3nnc(SCC(=O)c4ccc(C)c(C)c4)o3)cs2)cc1,AC50,[2],10.4 µM (active)
CC(=O)Nc1ccc(OC(=O)c2ccc(Br)c([N+](=O)[O-])c2)cc1,IC50,[18],10.1 µM (active)
same,IC50,[5],36.4 µM (active)
CC1(C)Cc2c(c(N3CCOCC3)nc3sc4c(NCc5ccccc5)nnnc4c23)CS1,EC50,[6],25 µM (active)
same,EC50,[7],20.8 µM (active)
same,EC50,[8],10.6 µM (active)
same,EC50,[16],1.13 µM (active)
same,EC50,[17],> 60 µM (not active)
CC1=NNC(=O)C1Cc1c(Cl)cccc1Cl (stereo not drawn),AC50,[11],1.39 µM (active)
same,EC50,[12],0.642 µM (active)
COc1cc(C=NNC(=O)c2ccccc2-n2cccc2)ccc1O,IC50,[5],32.7 µM (active)
Oc1ccc(CCc2ccccn2)cc1,IC50,[5],40 µM (active)
Oc1ccc(/C=N/Nc2ncc(Cl)cc2Cl)cc1,IC50,[5],32.3 µM (active)

# Source: ChEMBL document CHEMBL1201862, “PubChem BioAssay data set” (2004)
